Like-named read-outs stand apart in the source and are kept apart here.
What was measured:
hHDAC10 = hHDAC10 (Homo sapiens (Human), UniProt Q969S8); test: HDAC10 inhibition protocol; conditions: read-out: IC50 (nM) of enzyme activity HDAC10; selectivity table
Experimental: (§1) After enzymatic reactions, reaction was stopped by adding 5 μl of 10 μM solution of a known inhibitor. The fluorescent signal of substrate and product was measured by means of microfluidics mobility assay in a EZ Reader II equipment. The percentage of conversion of substrate into product was calculated by the equipment software based on the area of the peaks.
(§2) The percentage of conversion data were analyzed using the computer software, Graphpad Prism. In the absence of the compound, the conversion (Ct) in each data set was defined as 100% activity. In the absence of HDAC, the conversion (Cb) in each data set was defined as 0% activity. The percent activity in the presence of each compound was calculated according to the following equation: % inhibition=(Ct−C)/(Ct−Cb), where C=the percentage of conversion in the presence of the compound.
(§3) The values of % inhibition versus a series of compound concentrations were then plotted using non-linear regression analysis of Sigmoidal dose-response curve generated with the equation Y=B+(T−B)/1+10((Log EC50−X)×Hill Slope), where Y=percent inhibition, B=minimum percent inhibition, T=maximum percent inhibition, X=logarithm of compound and Hill Slope=slope factor or Hill coefficient. The IC50 value was determined by the concentration causing a half-maximal percent activity.
The buffer assay used in the inhibition hHDAC10 assay is: Hepes 50 mM, KCl 100 mM, Tween 20 0.001%, BSA 0.01%; pH=7.4.

hHDAC7 = hHDAC7 (Homo sapiens (Human), UniProt Q8WUI4); test: hHDAC7 inhibition protocol; conditions: read-out: IC50 (nM) of enzyme activity HDAC7; selectivity table
Experimental: The fluorescent signal of substrate and product was measured by means of microfluidics mobility assay in a EZ Reader II equipment. The percentage of conversion of substrate into product was calculated by the equipment software based on the area of the peaks.
as §2, §3
The buffer assay used in the inhibition hHDAC7 assay is: Hepes 50 mM, KCl 100 mM, Tween 20 0.001%, BSA 0.01%; pH=7.4.

hHDAC1 = hHDAC1 (Homo sapiens (Human), UniProt Q13547); test: hHDAC1 inhibition protocol; conditions: read-out: IC50 (nM) of enzyme activity HDAC1; selectivity table
Experimental: as §1, §2, §3
The buffer assay used in the inhibition hHDAC1 assay is: Hepes 50 mM, KCl 100 mM, Tween 20 0.001%, BSA 0.01%; pH=7.4.

hHDAC4 = hHDAC4 (Homo sapiens (Human), UniProt P56524); test: hHDAC4 inhibition protocol; conditions: read-out: IC50 (nM) of enzyme activity HDAC4; selectivity table
Experimental: as §1, §2, §3
The buffer assay used in the inhibition hHDAC4 assay is: Hepes 50 mM, KCl 100 mM, Tween 20 0.001%, BSA 0.01%; pH=7.4.

hHDAC2 = hHDAC2 (Homo sapiens (Human), UniProt Q92769); test: hHDAC2 inhibition protocol; conditions: read-out: IC50 (nM) of enzyme activity HDAC2; selectivity table
Experimental: as §1, §2, §3
The buffer assay used in the inhibition hHDAC2 assay is: Hepes 50 mM, KCl 100 mM, Tween 20 0.001%, BSA 0.01%; pH=7.4.

hHDAC3 = hHDAC3 (Homo sapiens (Human), UniProt O15379); test: hHDAC3 inhibition protocol; conditions: read-out: IC50 (nM) of enzyme activity HDAC3; selectivity table
Experimental: as §1, §2, §3
The buffer assay used in the inhibition hHDAC3 assay is: Hepes 50 mM, KCl 100 mM, Tween 20 0.001%, BSA 0.01%; pH=7.4.

hHDAC9 = hHDAC9 (Homo sapiens (Human), UniProt Q9UKV0); test: hHDAC9 inhibition protocol; conditions: read-out: IC50 (nM) of enzyme activity HDAC9; selectivity table
Experimental: as §1, §2, §3
The buffer assay used in the inhibition hHDAC9 assay is: Hepes 50 mM, KCl 100 mM, Tween 20 0.001%, BSA 0.01%; pH=7.4.

hHDAC6 = hHDAC6 (Homo sapiens (Human), UniProt Q9UBN7); test: HDAC6 inhibition protocol; conditions: read-out: IC50 (nM) of enzyme activity HDAC6
Experimental: as §1, §2, §3
The buffer assay used in the inhibition hHDAC6 assay is: Hepes 50 mM, KCl 100 mM, Tween 20 0.001%, BSA 0.01%; pH=7.4.

hHDAC8 = hHDAC8 (Homo sapiens (Human), UniProt Q9BY41); test: hHDAC8 inhibition protocol; conditions: read-out: IC50 (nM) of enzyme activity HDAC8; selectivity table
Experimental: as §1, §2, §3
The buffer assay used in the inhibition hHDAC8 assay is: Hepes 50 mM, KCl 100 mM, Tween 20 0.001%, BSA 0.01%; pH=7.4.

hHDAC5 = hHDAC5 (Homo sapiens (Human), UniProt Q9UQL6); test: hHDAC5 inhibition protocol; conditions: read-out: IC50 (nM) of enzyme activity HDAC5; selectivity table
hHDAC5, sequence (Q9UQL6 whole entry): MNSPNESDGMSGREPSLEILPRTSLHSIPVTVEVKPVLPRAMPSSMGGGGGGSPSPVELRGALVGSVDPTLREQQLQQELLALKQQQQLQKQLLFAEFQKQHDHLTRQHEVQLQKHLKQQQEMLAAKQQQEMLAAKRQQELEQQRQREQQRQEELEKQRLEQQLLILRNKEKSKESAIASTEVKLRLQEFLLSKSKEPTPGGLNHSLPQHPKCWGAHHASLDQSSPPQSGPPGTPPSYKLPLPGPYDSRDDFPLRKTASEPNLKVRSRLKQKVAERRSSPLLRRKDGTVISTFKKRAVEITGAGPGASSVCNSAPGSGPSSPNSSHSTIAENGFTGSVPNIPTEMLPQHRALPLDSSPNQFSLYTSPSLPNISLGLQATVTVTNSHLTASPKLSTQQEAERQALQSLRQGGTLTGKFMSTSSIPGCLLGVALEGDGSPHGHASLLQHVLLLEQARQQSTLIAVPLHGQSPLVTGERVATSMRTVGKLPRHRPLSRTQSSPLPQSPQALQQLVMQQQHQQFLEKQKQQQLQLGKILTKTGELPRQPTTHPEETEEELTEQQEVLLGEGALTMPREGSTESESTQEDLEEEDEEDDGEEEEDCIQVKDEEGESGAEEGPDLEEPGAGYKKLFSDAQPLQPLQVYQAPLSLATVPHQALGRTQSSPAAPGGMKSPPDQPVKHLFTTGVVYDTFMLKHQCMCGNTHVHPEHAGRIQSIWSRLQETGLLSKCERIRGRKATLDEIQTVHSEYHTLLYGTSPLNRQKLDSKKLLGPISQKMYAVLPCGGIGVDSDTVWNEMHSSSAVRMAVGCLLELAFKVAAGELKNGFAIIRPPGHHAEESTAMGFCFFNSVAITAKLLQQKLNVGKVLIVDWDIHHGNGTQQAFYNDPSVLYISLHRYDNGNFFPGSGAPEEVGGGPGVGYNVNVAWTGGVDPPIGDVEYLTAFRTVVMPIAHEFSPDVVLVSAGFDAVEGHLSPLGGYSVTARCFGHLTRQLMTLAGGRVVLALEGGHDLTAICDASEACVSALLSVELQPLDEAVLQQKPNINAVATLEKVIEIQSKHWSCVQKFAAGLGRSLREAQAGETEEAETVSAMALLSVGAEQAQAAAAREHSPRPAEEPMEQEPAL
Experimental: as §1, §2, §3
The buffer assay used in the inhibition hHDAC5 assay is: Hepes 50 mM, KCl 100 mM, Tween 20 0.001%, BSA 0.01%; pH=7.4.

hHDAC6, sequence (Q9UBN7 whole entry): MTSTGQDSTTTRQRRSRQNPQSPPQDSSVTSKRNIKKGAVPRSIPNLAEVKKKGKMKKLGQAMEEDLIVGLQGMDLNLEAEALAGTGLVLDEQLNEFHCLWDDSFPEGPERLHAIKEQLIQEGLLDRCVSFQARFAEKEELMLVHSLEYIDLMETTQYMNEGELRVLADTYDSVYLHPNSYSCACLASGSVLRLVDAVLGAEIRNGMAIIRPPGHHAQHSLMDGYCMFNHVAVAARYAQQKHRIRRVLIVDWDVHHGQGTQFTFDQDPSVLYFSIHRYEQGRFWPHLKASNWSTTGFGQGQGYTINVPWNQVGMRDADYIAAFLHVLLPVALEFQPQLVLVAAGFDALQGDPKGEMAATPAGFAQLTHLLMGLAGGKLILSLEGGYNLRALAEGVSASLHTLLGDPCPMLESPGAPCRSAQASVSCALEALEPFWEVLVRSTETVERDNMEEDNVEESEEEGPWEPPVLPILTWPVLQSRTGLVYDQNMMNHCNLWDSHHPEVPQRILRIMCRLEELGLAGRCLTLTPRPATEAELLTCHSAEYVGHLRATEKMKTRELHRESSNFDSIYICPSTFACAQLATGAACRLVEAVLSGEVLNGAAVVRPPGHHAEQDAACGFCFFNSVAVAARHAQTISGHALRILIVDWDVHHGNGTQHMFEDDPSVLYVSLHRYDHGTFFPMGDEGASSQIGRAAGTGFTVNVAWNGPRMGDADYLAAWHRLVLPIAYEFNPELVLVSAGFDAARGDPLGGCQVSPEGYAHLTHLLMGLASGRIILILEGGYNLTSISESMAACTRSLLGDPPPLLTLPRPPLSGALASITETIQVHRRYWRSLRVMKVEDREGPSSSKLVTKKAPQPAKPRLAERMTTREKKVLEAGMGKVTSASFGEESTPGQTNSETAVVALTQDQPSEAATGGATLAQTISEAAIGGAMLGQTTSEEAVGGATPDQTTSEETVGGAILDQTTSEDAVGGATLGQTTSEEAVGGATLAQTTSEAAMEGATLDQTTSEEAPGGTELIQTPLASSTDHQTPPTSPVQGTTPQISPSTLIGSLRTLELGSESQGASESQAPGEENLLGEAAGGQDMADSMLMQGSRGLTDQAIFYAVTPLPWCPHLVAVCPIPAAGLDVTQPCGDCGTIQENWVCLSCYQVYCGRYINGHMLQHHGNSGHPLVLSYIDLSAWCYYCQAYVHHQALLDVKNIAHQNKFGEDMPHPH
hHDAC3, sequence (O15379 whole entry): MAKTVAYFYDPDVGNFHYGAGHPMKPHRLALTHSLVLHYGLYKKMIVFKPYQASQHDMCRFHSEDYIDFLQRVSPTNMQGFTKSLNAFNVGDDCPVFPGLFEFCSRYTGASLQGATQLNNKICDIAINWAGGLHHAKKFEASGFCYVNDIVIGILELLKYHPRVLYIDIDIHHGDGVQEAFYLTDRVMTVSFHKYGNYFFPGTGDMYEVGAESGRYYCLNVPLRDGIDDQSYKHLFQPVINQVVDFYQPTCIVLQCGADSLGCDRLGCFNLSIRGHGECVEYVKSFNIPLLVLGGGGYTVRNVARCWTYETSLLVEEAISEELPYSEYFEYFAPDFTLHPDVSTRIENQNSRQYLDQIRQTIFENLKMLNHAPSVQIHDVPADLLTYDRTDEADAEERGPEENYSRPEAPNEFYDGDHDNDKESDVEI
hHDAC3, sequence (Q9Y618 395-489 partner): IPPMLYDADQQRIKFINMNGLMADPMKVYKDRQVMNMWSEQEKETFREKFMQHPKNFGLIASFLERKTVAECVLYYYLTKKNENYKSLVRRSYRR
hHDAC8, sequence (Q9BY41 whole entry): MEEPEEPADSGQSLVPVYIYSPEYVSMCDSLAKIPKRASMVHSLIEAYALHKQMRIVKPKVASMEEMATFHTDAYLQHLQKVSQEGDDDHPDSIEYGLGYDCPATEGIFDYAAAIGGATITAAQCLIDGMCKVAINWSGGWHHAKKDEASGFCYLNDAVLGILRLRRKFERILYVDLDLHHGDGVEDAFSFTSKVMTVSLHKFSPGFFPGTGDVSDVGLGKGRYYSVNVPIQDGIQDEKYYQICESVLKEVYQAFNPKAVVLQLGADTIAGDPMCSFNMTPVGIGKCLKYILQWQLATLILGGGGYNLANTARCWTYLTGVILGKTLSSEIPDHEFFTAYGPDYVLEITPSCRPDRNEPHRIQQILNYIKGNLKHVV
hHDAC10, sequence (Q969S8 whole entry): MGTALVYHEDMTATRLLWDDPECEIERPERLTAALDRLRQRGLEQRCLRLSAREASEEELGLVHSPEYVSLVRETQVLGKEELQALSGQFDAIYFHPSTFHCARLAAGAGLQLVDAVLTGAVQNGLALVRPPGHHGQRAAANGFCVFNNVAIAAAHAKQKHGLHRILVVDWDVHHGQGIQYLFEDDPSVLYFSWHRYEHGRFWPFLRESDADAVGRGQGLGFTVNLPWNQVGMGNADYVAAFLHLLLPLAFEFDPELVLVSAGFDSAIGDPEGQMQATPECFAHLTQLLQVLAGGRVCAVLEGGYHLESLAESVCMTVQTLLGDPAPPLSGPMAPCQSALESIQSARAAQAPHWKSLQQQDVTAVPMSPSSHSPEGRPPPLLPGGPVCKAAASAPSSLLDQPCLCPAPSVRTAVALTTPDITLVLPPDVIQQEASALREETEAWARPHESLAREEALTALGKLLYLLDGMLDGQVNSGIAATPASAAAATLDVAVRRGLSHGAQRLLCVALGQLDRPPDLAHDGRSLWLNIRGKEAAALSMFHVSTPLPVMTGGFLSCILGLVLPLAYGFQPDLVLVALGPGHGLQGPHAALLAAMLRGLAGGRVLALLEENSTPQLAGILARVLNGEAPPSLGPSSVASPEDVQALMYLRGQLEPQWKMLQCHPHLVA
hHDAC4, sequence (P56524 whole entry): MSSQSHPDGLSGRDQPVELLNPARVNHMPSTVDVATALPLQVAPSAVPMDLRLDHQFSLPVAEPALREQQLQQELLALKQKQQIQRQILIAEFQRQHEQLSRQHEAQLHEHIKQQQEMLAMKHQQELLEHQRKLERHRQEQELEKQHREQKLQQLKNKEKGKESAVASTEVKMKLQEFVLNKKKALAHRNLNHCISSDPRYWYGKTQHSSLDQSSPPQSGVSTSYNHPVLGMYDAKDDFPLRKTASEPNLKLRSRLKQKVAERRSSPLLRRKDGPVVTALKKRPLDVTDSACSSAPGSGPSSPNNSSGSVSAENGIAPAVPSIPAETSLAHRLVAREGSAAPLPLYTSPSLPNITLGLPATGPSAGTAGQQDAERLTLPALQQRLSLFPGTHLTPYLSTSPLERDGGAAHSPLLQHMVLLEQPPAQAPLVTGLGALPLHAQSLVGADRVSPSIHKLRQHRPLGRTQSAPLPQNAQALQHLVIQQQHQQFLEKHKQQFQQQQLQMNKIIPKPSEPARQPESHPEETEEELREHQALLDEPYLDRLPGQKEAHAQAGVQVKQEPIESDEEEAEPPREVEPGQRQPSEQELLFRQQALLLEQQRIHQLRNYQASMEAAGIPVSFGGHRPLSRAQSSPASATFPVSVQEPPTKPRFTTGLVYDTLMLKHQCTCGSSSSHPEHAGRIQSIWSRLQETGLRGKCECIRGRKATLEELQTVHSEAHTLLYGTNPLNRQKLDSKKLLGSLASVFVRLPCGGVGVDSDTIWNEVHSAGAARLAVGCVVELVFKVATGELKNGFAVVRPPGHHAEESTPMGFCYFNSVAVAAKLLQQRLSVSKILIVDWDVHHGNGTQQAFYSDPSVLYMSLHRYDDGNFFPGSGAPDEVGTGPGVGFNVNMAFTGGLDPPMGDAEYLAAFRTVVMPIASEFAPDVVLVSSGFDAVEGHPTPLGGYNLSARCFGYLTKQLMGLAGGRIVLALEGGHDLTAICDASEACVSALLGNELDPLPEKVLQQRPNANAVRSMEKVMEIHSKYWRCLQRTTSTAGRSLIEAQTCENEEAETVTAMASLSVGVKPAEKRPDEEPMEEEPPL

## FC(F)c1nnc(-c2ccc(Cn3nnc(-c4cccc(Cl)c4)c3Cl)nc2)o1 [Example 54, 2-(6-((5-chloro-4-(3-chlorophenyl)-1H-1,2,3-triazol-1-yl)methyl)pyridin-3-yl)-5-(difluoromethyl)-1,3,4-oxadiazole]
hHDAC10
  IC50: > 10000 nM
hHDAC7
  IC50: 1400 nM
hHDAC1
  IC50: > 10000 nM
hHDAC4
  IC50: 1490 nM
hHDAC2
  IC50: > 10000 nM
hHDAC3
  IC50: > 10000 nM
hHDAC9
  IC50: 2610 nM
hHDAC6; hHDAC6 1.20 nM, Acetylated Peptide A 2 μM, 1 hour at RT
  IC50: 34.1 nM
hHDAC6; selectivity table
  IC50: 34.1 nM
hHDAC8
  IC50: > 10000 nM
hHDAC5
  IC50: > 10000 nM
